Experimental data reported in ChEMBL document CHEMBL6087454, “Identification of Novel Organo-Se BTSA-Based Derivatives as Potent, Reversible, and Selective PPARγ Covalent Modulators for Antidiabetic Drug Discovery” (J Med Chem, 2025).
The source made the active and inactive calls. No cut-off for these calls is given here.

Columns and labels:
[1] = target: T1, Peroxisome proliferator-activated receptor gamma (Homo sapiens, UniProt P37231); assay: Displacement of fluormone pan-PPAR green from recombinant GST-tagged human PPAR-gamma ligand binding domain (E235 to Y505 residues) extracted from Escherichia coli BL21 (DE3) cells by TR-FRET assay
T1 sequence (P37231 whole entry): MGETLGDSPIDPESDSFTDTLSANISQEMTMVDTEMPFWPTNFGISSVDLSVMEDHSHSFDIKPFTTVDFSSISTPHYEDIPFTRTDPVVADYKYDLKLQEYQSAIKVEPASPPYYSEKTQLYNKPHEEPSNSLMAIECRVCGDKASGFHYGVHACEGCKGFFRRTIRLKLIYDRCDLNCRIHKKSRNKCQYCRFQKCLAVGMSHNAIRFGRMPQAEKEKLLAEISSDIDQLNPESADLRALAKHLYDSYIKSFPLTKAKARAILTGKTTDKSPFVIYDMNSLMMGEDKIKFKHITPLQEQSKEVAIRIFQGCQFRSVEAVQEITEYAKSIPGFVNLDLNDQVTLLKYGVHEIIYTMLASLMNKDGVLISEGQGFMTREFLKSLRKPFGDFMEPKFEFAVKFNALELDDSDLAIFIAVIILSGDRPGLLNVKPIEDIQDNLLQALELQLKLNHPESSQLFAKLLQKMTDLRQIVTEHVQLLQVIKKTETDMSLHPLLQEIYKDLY

[2] = target: T1, Peroxisome proliferator-activated receptor gamma; assay: Binding affinity to recombinant GST-tagged human PPAR-gamma ligand binding domain (E235 to Y505 residues) extracted from Escherichia coli BL21 (DE3) cells assessed as inhibition constant in presence of fluormone pan-PPAR green tracer by TR-FRET assay
[3] = target: T2, Peroxisome proliferator-activated receptor gamma (Homo sapiens) (UniProt P37231); assay: Covalent binding affinity to recombinant PPAR-gamma ligand binding domain (unknown origin) incubated for 30 mins by high-performance liquid chromatography Fourier transform mass spectrometric analysis; conditions: filed as partial agonist
T2 sequence (whole entry): T1 sequence (P37231 whole entry)

3T3-L1 [4] = assay: Inhibition of adipocyte differentiation in mouse 3T3-L1 cells assessed as reduction in lipid accumulation at 1 uM measured after 48 hrs by Oil red O staining based inverted microscopic analysis; assay type: functional, cell-based
3T3-L1 [5] = assay: Inhibition of adipogenesis in mouse 3T3-L1 cells assessed as downregulation of FASN gene expression at 1 uM measured after 48 hrs by RT-qPCR analysis; assay type: functional, cell-based
3T3-L1 [6] = assay: Insulin sensitizing activity in mouse 3T3-L1 cells assessed as upregulation of Glut4 gene expression at 1 uM measured after 48 hrs by RT-qPCR analysis; assay type: functional, cell-based
3T3-L1 [7] = assay: Insulin sensitizing activity in mouse 3T3-L1 cells assessed as downregulation of PTP1B gene expression at 1 uM measured after 48 hrs by RT-qPCR analysis; assay type: functional, cell-based
3T3-L1 [8] = assay: Insulin sensitizing activity in mouse 3T3-L1 cells assessed as downregulation of SOCS3 gene expression at 1 uM measured after 48 hrs by RT-qPCR analysis; assay type: functional, cell-based
Mus musculus [9] = assay: Antidiabetic activity in male db/db mouse model assessed as reduction in random blood glucose level administered intraperitoneally for 4 weeks; assay type: functional, organism-based; conditions: dose 2.5-10 mg/kg/day, route ip
[10] = Toxicity in male db/db mouse model assessed as effect on heart weight at 2.5 to 10 mg/kg/day, ip administered for 4 weeks; assay type: organism-based; conditions: in vivo, 672 h, dose 2.5-10 mg/kg/day
[11] = Toxicity in male db/db mouse model assessed as effect on spleen weight at 2.5 to 10 mg/kg/day, ip administered for 4 weeks; assay type: organism-based; conditions: in vivo, 672 h, dose 2.5-10 mg/kg/day
[12] = Toxicity in male db/db mouse model assessed as effect on liver weight at 2.5 to 5 mg/kg, ip administered for 4 weeks; assay type: organism-based; conditions: in vivo, 672 h, dose 2.5-5 mg/kg
[13] = Toxicity in male db/db mouse model assessed as increase in white adipose tissue weight at 2.5 to 10 mg/kg/day, ip administered for 4 weeks; assay type: organism-based; conditions: in vivo, 672 h, dose 2.5-10 mg/kg/day
Mus musculus [14] = assay: In vivo inhibition of Erk/Cdk5-mediated PPAR-gamma phosphorylation at Ser273 residue in male db/db mouse model assessed as decrease in phosphorylated-MEK expression in liver at 2.5 to 10 mg/kg/day, ip administered for 4 weeks by Western blotting analysis; assay type: functional, organism-based; conditions: dose 2.5-10 mg/kg/day
Mus musculus [15] = assay: Antidiabetic activity in male db/db mouse model assessed as increase in ANGPTL4 protein abundance in white adipose tissue at 2.5 to 10 mg/kg/day, ip administered for 4 weeks by Western blotting analysis; assay type: functional, organism-based; conditions: dose 2.5-10 mg/kg/day
Mus musculus [16] = assay: Antidiabetic activity in male db/db mouse model assessed as increase in Glut4 protein abundance in white adipose tissue at 2.5 to 10 mg/kg/day, ip administered for 4 weeks by Western blotting analysis; assay type: functional, organism-based; conditions: dose 2.5-10 mg/kg/day
Mus musculus [17] = assay: Antidiabetic activity in male db/db mouse model assessed as decrease in PDK4 protein abundance in white adipose tissue at 2.5 to 10 mg/kg/day, ip administered for 4 weeks by Western blotting analysis; assay type: functional, organism-based; conditions: dose 2.5-10 mg/kg/day
Mus musculus [18] = assay: Antidiabetic activity in male db/db mouse model assessed as increase in ANGPTL4 protein abundance in liver at 2.5 to 10 mg/kg/day, ip administered for 4 weeks by Western blotting analysis; assay type: functional, organism-based; conditions: dose 2.5-10 mg/kg/day
Mus musculus [19] = assay: Antidiabetic activity in male db/db mouse model assessed as increase in ADIPOQ protein abundance in liver at 2.5 to 10 mg/kg/day, ip administered for 4 weeks by Western blotting analysis; assay type: functional, organism-based; conditions: dose 2.5-10 mg/kg/day
Mus musculus [20] = assay: Effect on pRb protein expression in male db/db mouse liver at 2.5 to 10 mg/kg/day, ip administered for 4 weeks by Western blotting analysis; assay type: functional, organism-based; conditions: dose 2.5-10 mg/kg/day
Mus musculus [21] = assay: Effect on pRb protein expression in male db/db mouse white adipose tissue at 2.5 to 10 mg/kg/day, ip administered for 4 weeks by Western blotting analysis; assay type: functional, organism-based; conditions: dose 2.5-10 mg/kg/day
Mus musculus [22] = assay: Antidiabetic activity in male db/db mouse model assessed as upregulation of Glut4 gene expression in white adipose tissue at 2.5 to 10 mg/kg/day, ip administered for 4 weeks by RT-qPCR analysis; assay type: functional, organism-based; conditions: dose 2.5-10 mg/kg/day
Mus musculus [23] = assay: Antidiabetic activity in male db/db mouse model assessed as downregulation of PTP1B gene expression in white adipose tissue at 2.5 to 10 mg/kg/day, ip administered for 4 weeks by RT-qPCR analysis; assay type: functional, organism-based; conditions: dose 2.5-10 mg/kg/day
Mus musculus [24] = assay: Antidiabetic activity in male db/db mouse model assessed as downregulation of PPARgamma gene expression in white adipose tissue at 2.5 to 10 mg/kg/day, ip administered for 4 weeks by RT-qPCR analysis; assay type: functional, organism-based; conditions: dose 2.5-10 mg/kg/day
Mus musculus [25] = assay: Antidiabetic activity in male db/db mouse model assessed as upregulation of Glut4 gene expression in liver at 2.5 to 10 mg/kg/day, ip administered for 4 weeks by RT-qPCR analysis; assay type: functional, organism-based; conditions: dose 2.5-10 mg/kg/day
Mus musculus [26] = assay: Antidiabetic activity in male db/db mouse model assessed as downregulation of aP2 gene expression in liver at 2.5 to 10 mg/kg/day, ip administered for 4 weeks by RT-qPCR analysis; assay type: functional, organism-based; conditions: dose 2.5-10 mg/kg/day
Mus musculus [27] = assay: Antidiabetic activity in male db/db mouse model assessed as downregulation of FASN gene expression in liver at 2.5 to 10 mg/kg/day, ip administered for 4 weeks by RT-qPCR analysis; assay type: functional, organism-based; conditions: dose 2.5-10 mg/kg/day

For Cc1ccc(S(=O)(=O)Oc2ccc(S3(=O)=N[Se]c4cc(OS(=O)(=O)c5ccc(C)cc5)ccc43)cc2)cc1 (configuration not stated), the IC50 [1] was 346 nM, the Ki [2] was 124 nM and the Activity [3] was “Active; Mass Change Of 633.50 Da For Ppargamma-Lbd Observed”. For the same compound, the inhibition (3T3-L1 [4]) was “Active”, the inhibition (3T3-L1 [5]) was “Active” and the Activity (3T3-L1 [6]) was “Active”. The Activity (3T3-L1 [7]) was “Active”, the Activity (3T3-L1 [8]) was “Active” and the Activity (Mus musculus [9]) was “Dose-dependent-effect”. The Activity [10] was “Non-toxic”, the Activity [11] was “Non-toxic” and the Activity [12] was “Non-toxic”. The Activity [13] was “Non-toxic”, the inhibition (Mus musculus [14]) was “Active” and the Activity (Mus musculus [15]) was “Active”. For the same compound, the Activity (Mus musculus [16]) was “Active”, the Activity (Mus musculus [17]) was “Active” and the Activity (Mus musculus [18]) was “Active”. For the same compound, the Activity (Mus musculus [19]) was “Active”, the Activity (Mus musculus [20]) was “inactive” and the Activity (Mus musculus [21]) was “inactive”. The Activity (Mus musculus [22]) was “Active”, the Activity (Mus musculus [23]) was “Active” and the Activity (Mus musculus [24]) was “Active”. For the same compound, the Activity (Mus musculus [25]) was “Active”, the Activity (Mus musculus [26]) was “Active” and the Activity (Mus musculus [27]) was “Active”.
